Converted amounts (≈) assume the structure as drawn. Read-outs that look alike come from different tables or passages of the source.
Assays:
[1] = system: carbapenem sensitive Pseudomonas aeruginosa; assay: MIC by broth micro-dilution (CLSI), carbapenem sensitive P. aeruginosa; type: cell-based
[2] = system: carbapenem sensitive Escherichia coli; assay: MIC by broth micro-dilution (CLSI), carbapenem sensitive E. coli; type: cell-based
[3] = system: carbapenemase producing K. pneumoniae; assay: MIC by broth micro-dilution (CLSI), carbapenemase producing K. pneumoniae; type: cell-based, Klebsiella pneumoniae
[4] = system: methicillin-sensitive Staphylococcus aureus; assay: MIC by broth micro-dilution (CLSI), methicillin-sensitive S. aureus; type: cell-based; conditions: MSSA S. aureus ATCC29213
[5] = Pseudomonas aeruginosa, ATCC27853, Meropenem susceptible P. aeruginosa ATCC27853, read-out: MIC
[6] = Escherichia coli, ATCC25922, ESBL −ve E. coli ATCC25922, read-out: MIC
[7] = Klebsiella pneumoniae, ATCCBAA1705, KPC-2 K. pneumoniae ATCC BAA-1705, read-out: MIC
[8] = Staphylococcus aureus, ATCC 29213 / MSSA, read-out: MIC

Structure (SMILES): C[C@@H](NC(=O)Cn1cnnn1)[C@H]1C(=O)N2C(C(=O)O)=C(S[C@@H]3CN[C@H](C(=O)N4CCN(C(=O)[C@H]5C[C@@H](N)CN5)CC4)C3)[C@H](C)[C@H]12 [Example 434, (4R,5S,6R)-6-((R)-1-(2-(1H-tetrazol-1-yl)acetamido)ethyl)-3-((3S,5S)-5-(4-((2R,4R)-4-aminopyrrolidine-2-carbonyl)piperazine-1-carbonyl)pyrrolidin-3-ylthio)-4-methyl-7-oxo-1-azabicyclo[3.2.0]hept-2-ene-2-carboxylic acid]
- MIC [1, 5]: 2 µg/mL (≈ 3.1 µM)
- MIC [2, 6]: 0.5 µg/mL (≈ 0.774 µM)
- MIC [3, 7]: 2 µg/mL (≈ 3.1 µM)
- MIC [4, 8]: 2 µg/mL (≈ 3.1 µM)

Structure (SMILES): C[C@@H](NC(=O)C(F)F)[C@H]1C(=O)N2C(C(=O)O)=C(S[C@@H]3CN[C@H](C(=O)N(C)Cc4cc(=O)c(O)cn4C)C3)[C@H](C)[C@H]12 [Example 243]
- MIC [1, 5]: > 128 µg/mL
- MIC [2, 6]: 16 µg/mL (≈ 27.4 µM)
- MIC [3, 7]: 32 µg/mL (≈ 54.8 µM)
- MIC [4, 8]: 32 µg/mL (≈ 54.8 µM)

Structure (SMILES): C[C@@H](NC(=O)Cn1cnnn1)[C@H]1C(=O)N2C(C(=O)O)=C(S[C@@H]3CN[C@H](C(=O)N4CC(N)C(F)C4)C3)[C@H](C)[C@H]12 (single isomer, unassigned) [Example 478]
- MIC [1, 5]: 8 µg/mL (≈ 14.5 µM)
- MIC [2, 6]: 0.125 µg/mL (≈ 0.227 µM)
- MIC [3, 7]: 1 µg/mL (≈ 1.81 µM)
- MIC [4, 8]: 8 µg/mL (≈ 14.5 µM)

Structure (SMILES): CNCC(=O)N[C@H](C)[C@H]1C(=O)N2C(C(=O)O)=C(S[C@@H]3CN[C@H](CNC(=O)c4cc(=O)c(O)cn4C)C3)[C@H](C)[C@H]12 [Example 254]
- MIC [1, 5]: 128 µg/mL (≈ 227 µM)
- MIC [2, 6]: 8 µg/mL (≈ 14.2 µM)
- MIC [3, 7]: 16 µg/mL (≈ 28.4 µM)
- MIC [4, 8]: 64 µg/mL (≈ 114 µM)

Structure (SMILES): C[C@@H](NC(=O)Cn1cnnn1)[C@H]1C(=O)N2C(C(=O)O)=C(S[C@@H]3CN[C@H](C(=O)N4CCC5CNCCC54)C3)C[C@H]12 (stereo partly drawn) [Example 601, (5R,6R)-6-((R)-1-(2-(1H-tetrazol-1-yl)acetamido)ethyl)-3-((3S,5S)-5-(octahydro-1H-pyrrolo[3,2-c]pyridine-1-carbonyl)pyrrolidin-3-ylthio)-7-oxo-1-azabicyclo[3.2.0]hept-2-ene-2-carboxylic acid]
- MIC [1, 5]: 128 µg/mL (≈ 229 µM)
- MIC [2, 6]: 2 µg/mL (≈ 3.57 µM)
- MIC [3, 7]: 64 µg/mL (≈ 114 µM)
- MIC [4, 8]: 2 µg/mL (≈ 3.57 µM)

Structure (SMILES): C[C@@H](NC(=O)Cn1cnnn1)[C@H]1C(=O)N2C(C(=O)O)=C(S[C@@H]3CN[C@H](C(=O)N4CCC(N)(CO)C4)C3)[C@H](C)[C@H]12 (single isomer, unassigned) [Example 497]
- MIC ([1]; Meropenem susceptible P. aeruginosa ATCC27853): 4 µg/mL (≈ 7.1 µM)
- MIC ([2]; ESBL −ve E. coli ATCC25922): 0.25 µg/mL (≈ 0.444 µM)
- MIC ([3]; KPC-2 K. pneumoniae ATCC BAA-1705): 2 µg/mL (≈ 3.55 µM)
- MIC [4]: 4 µg/mL (≈ 7.1 µM)

Structure (SMILES): C[C@@H](NC(=O)CN1CCNCC1)[C@H]1C(=O)N2C(C(=O)O)=C(S[C@@H]3CN[C@H](C(=O)N(C)C)C3)[C@H](C)[C@H]12 [Example 508, (4R,5S,6R)-3-((3S,5S)-5-(dimethylcarbamoyl)pyrrolidin-3-ylthio)-4-methyl-7-oxo-6-((R)-1-(2-(piperazin-1-yl)acetamido)ethyl)-1-azabicyclo[3.2.0]hept-2-ene-2-carboxylic acid]
- MIC [1, 5]: 128 µg/mL (≈ 252 µM)
- MIC [2, 6]: 2 µg/mL (≈ 3.93 µM)
- MIC [3, 7]: 8 µg/mL (≈ 15.7 µM)
- MIC [4, 8]: 16 µg/mL (≈ 31.5 µM)

Structure (SMILES): C[C@@H](NC(=O)Cn1cnnn1)[C@H]1C(=O)N2C(C(=O)O)=C(S[C@@H]3CN[C@H](C(=O)N4C[C@H](N)C[C@H]4CO)C3)[C@H](C)[C@H]12 [Example 440, (4R,5S,6R)-6-((R)-1-(2-(1H-tetrazol-1-yl)acetamido)ethyl)-3-((3S,5S)-5-((2S,4R)-4-amino-2-(hydroxymethyl)pyrrolidine-1-carbonyl)pyrrolidin-3-ylthio)-4-methyl-7-oxo-1-azabicyclo[3.2.0]hept-2-ene-2-carboxylic acid]
- MIC [1, 5]: 1 µg/mL (≈ 1.77 µM)
- MIC [2, 6]: 0.25 µg/mL (≈ 0.444 µM)
- MIC [3, 7]: 1 µg/mL (≈ 1.77 µM)
- MIC [4, 8]: 2 µg/mL (≈ 3.55 µM)

Structure (SMILES): C[C@@H](NC(=O)Cn1cnnn1)[C@H]1C(=O)N2C(C(=O)O)=C(S[C@@H]3CN[C@H](C(=O)N4CCCN(C(=N)N)CC4)C3)[C@H](C)[C@H]12 [Example 517, (4R,5S,6R)-6-((R)-1-(2-(1H-tetrazol-1-yl)acetamido)ethyl)-3-((3S,5S)-5-(4-carbamimidoyl-1,4-diazepane-1-carbonyl)pyrrolidin-3-ylthio)-4-methyl-7-oxo-1-azabocyclo[3.2.0]hept-2-ene-2-carboxylic acid]
- MIC [1, 5]: 4 µg/mL (≈ 6.78 µM)
- MIC [2, 6]: 0.5 µg/mL (≈ 0.848 µM)
- MIC [3, 7]: 2 µg/mL (≈ 3.39 µM)
- MIC [4, 8]: 4 µg/mL (≈ 6.78 µM)

Structure (SMILES): C[C@@H](NC(=O)Cn1cnnn1)[C@H]1C(=O)N2C(C(=O)O)=C(S[C@@H]3CN[C@H](C(=O)N4CC5CC(NC(=N)N)CC5C4)C3)[C@H](C)[C@H]12 (stereo partly drawn) [Example 581, (4R,5S,6R)-6-((R)-1-(2-(1H-tetrazol-yl)acetamido)ethyl)-3-((3S,5S)-5-(5-guanidinooctahydroyclopenta[c]pyrrole-2-carbonyl)pyrrolidin-3-ylthio)-4-methyl-7-oxo-1-azabicyclo[3.2.0]hept-2-ene-2-carboxylic acid]
- MIC [1, 5]: 64 µg/mL (≈ 104 µM)
- MIC [2, 6]: 0.5 µg/mL (≈ 0.812 µM)
- MIC [3, 7]: 8 µg/mL (≈ 13 µM)
- MIC [4, 8]: 8 µg/mL (≈ 13 µM)

Structure (SMILES): C[C@@H](NC(=O)Cn1cnnn1)[C@H]1C(=O)N2C(C(=O)O)=C(S[C@@H]3CN[C@H](C(=O)N4CC[C@@H](O)C4)C3)[C@H](C)[C@H]12 [Example 393, (4R,5S,6R)-6-((R)-1-(2-(1H-tetrazol-1-yl)acetamido)ethyl)-3-((3S,5S)-5-((R)-3-hydroxypyrrolidine-1-carbonyl)pyrrolidin-3-ylthio)-4-methyl-7-oxo-1-azabicyclo[3.2.0]hept-2-ene-2-carboxylic acid]
- MIC [1, 5]: 8 µg/mL (≈ 15 µM)
- MIC [2, 6]: 0.125 µg/mL (≈ 0.234 µM)
- MIC [3, 7]: 1 µg/mL (≈ 1.87 µM)
- MIC [4, 8]: 4 µg/mL (≈ 7.48 µM)

Structure (SMILES): C[C@@H](NC(=O)Cn1cnnn1)[C@H]1C(=O)N2C(C(=O)O)=C(S[C@@H]3CN[C@H](C(=O)N4CCC5CNCC54)C3)[C@H](C)[C@H]12 (single isomer, unassigned) [Example 466]
- MIC [1, 5]: 4 µg/mL (≈ 7.15 µM)
- MIC [2, 6]: 0.5 µg/mL (≈ 0.893 µM)
- MIC [3, 7]: 2 µg/mL (≈ 3.57 µM)
- MIC [4, 8]: 4 µg/mL (≈ 7.15 µM)

Structure (SMILES): C[C@@H](NC(=O)Cn1cnnn1)[C@H]1C(=O)N2C(C(=O)O)=C(S[C@@H]3CN[C@H](C(=O)N4CCC5CNCC5C4)C3)[C@H](C)[C@H]12 (single isomer, unassigned) [Example 533]
- MIC [1, 5]: 2 µg/mL (≈ 3.49 µM)
- MIC [2, 6]: 0.25 µg/mL (≈ 0.436 µM)
- MIC [3, 7]: 2 µg/mL (≈ 3.49 µM)
- MIC ([4]; Staphylococcus aureus, ATCC29213|MSSA, read-out: MIC): 4 µg/mL (≈ 6.97 µM)

Structure (SMILES): C[C@@H](NS(=O)(=O)Cn1ncnn1)[C@H]1C(=O)N2C(C(=O)O)=C(S[C@@H]3CN[C@H](C(=O)N4CC[C@@H](N)C4)C3)[C@H](C)[C@H]12 [Example 382, (4R,5S,6S)-6-((R)-1-((2H-tetrazol-2-yl)methylsulfonamido)ethyl)-3-((3S,5S)-5-((R)-3-aminopyrroldine-1-carbonyl)pyrrolidin-3-ylthio)-4-methyl-7-oxo-1-azabicyclo[3.2.0]hept-2-ene-2-carboxylic acid]
- MIC [1, 5]: 128 µg/mL (≈ 225 µM)
- MIC [2, 6]: 1 µg/mL (≈ 1.76 µM)
- MIC [3, 7]: 4 µg/mL (≈ 7.02 µM)
- MIC [4, 8]: 16 µg/mL (≈ 28.1 µM)

Structure (SMILES): C[C@@H](NC(=O)Cn1cnnn1)[C@H]1C(=O)N2C(C(=O)O)=C(S[C@@H]3CN[C@H](C(=O)N4CCN(CCCN)CC4)C3)[C@H](C)[C@H]12 [Example 445, (4R,5S,6R)-6-((R)-1-(2-(1H-tetrazol-1-yl)acetamido)ethyl)-3-((3S,5S)-5-(4-(3-aminopropyl)piperazine-1-carbooyl)pyrrolidin-3-ylthio)-4-methyl-7-oxo-1-azabicyclo[3.2.0]hept-2-ene-2-carboxylic acid]
- MIC [1, 5]: 1 µg/mL (≈ 1.69 µM)
- MIC [2, 6]: 0.25 µg/mL (≈ 0.423 µM)
- MIC [3, 7]: 1 µg/mL (≈ 1.69 µM)
- MIC [4, 8]: 2 µg/mL (≈ 3.39 µM)

Structure (SMILES): C[C@@H](NC(=O)Cn1cnnn1)[C@H]1C(=O)N2C(C(=O)O)=C(S[C@@H]3CN[C@H](C(=O)N4C[C@H](O)[C@H](NC(=N)N)C4)C3)[C@H](C)[C@H]12 [Example 545, (4R,5S,6R)-6-((R)-1-(2-(1H-tetrazol-1-yl)acetamido)ethyl)-3-((3S,5S)-5-((3R,4S)-3-guanidino-4-hydroxypyrrolidine-1-carbonyl)pyrrolidin-3-ylthio)-4-methyl-7-oxo-1-azabicyclo[3.2.0)hept-2-ene-2-carboxylic acid]
- MIC [1, 5]: 1 µg/mL (≈ 1.69 µM)
- MIC [2, 6]: 0.125 µg/mL (≈ 0.211 µM)
- MIC [3, 7]: 0.5 µg/mL (≈ 0.845 µM)
- MIC [4, 8]: 1 µg/mL (≈ 1.69 µM)

Structure (SMILES): C[C@@H](NC(=O)Cn1cnnn1)[C@H]1C(=O)N2C(C(=O)O)=C(S[C@@H]3CN[C@H](C(=O)N4CC5CCN(CCN)C5C4)C3)[C@H](C)[C@H]12 (stereo partly drawn) [Example 577, (4R,5S,6R)-6-((R)-1-(2-(1H-tetrazol-1-yl)acetamido)ethyl)-3-((3S,5S)-5-(1-(2-aminoethyl)octahydropyrrolo[3,4-b]pyrrole-5-carbonyl)pyrrolidin-3-ylthio)-4-methyl-7-oxo-1-azabicyclo[3.2.0]hept-2-ene-2-carboxylic acid]
- MIC [1, 5]: 4 µg/mL (≈ 6.64 µM)
- MIC [2, 6]: 0.25 µg/mL (≈ 0.415 µM)
- MIC [3, 7]: 2 µg/mL (≈ 3.32 µM)
- MIC [4, 8]: 4 µg/mL (≈ 6.64 µM)

Structure (SMILES): C[C@@H](NC(=O)Cn1cnnn1)[C@H]1C(=O)N2C(C(=O)O)=C(S[C@@H]3CN[C@H](C(=O)N4C[C@H]5CNC[C@@]5(CO)C4)C3)[C@H](C)[C@H]12 [Example 524, (4R,5S,6R)-6-((R)-1-(2-(1H-tetrazol-1-yl)acetamido)ethyl)-3-((3S,5S)-5-((3aR,6aR)-3a-(hydroxymethyl)octahydropyrrolo[3,4-c]pyrrole-2-carbonyl)pyrrolidin-3-ylthio)-4-methyl-7-oxo-1-azabicyclo[3.2.0]hept-2-ene-2-carboxylic acid]
- MIC [1, 5]: 1 µg/mL (≈ 1.7 µM)
- MIC [2, 6]: 0.25 µg/mL (≈ 0.424 µM)
- MIC [3, 7]: 2 µg/mL (≈ 3.39 µM)
- MIC [4, 8]: 4 µg/mL (≈ 6.78 µM)

Structure (SMILES): C[C@H]([C@H]1C(=O)N2C(C(=O)O)=C(S[C@@H]3CN[C@H](C(=O)N4CC[C@@H](N)C4)C3)[C@H](C)[C@H]12)n1nnc(N)n1 [Example 327, (4R,5S,6S)-6-((R) - 1-(5-amino-2H-tetrazol-2-yl)ethyl)-3-((3S,5S)-5-((R)-3-aminopyrrolidine-1-carbonyl)pyrrolidin-3-ylthio)-4-methyl-7-oxo-1-azabicyclo[3.2.0]hept-2-ene-2-carboxylic acid]
- MIC [1, 5]: 64 µg/mL (≈ 130 µM)
- MIC [2, 6]: 2 µg/mL (≈ 4.07 µM)
- MIC [3, 7]: 32 µg/mL (≈ 65.1 µM)
- MIC [4, 8]: 1 µg/mL (≈ 2.03 µM)
